Among the data in patent US20120028265A1, “METHODS OF USING RET NANOSENSORS” (priority 2007, published 2012) are Kd values, retold here.

Experiment [1] deals with FLII12Pglu700μ-δ6 glucose nanosensor (Escherichia coli, UniProt P0AEE5). The experiment is classed as binding. The conditions noted are these: read-out: Kd, affinity constant of nanosensor; used for theoretical saturation curve.
Description: (A) Theoretical curve of glucose-induced FRET changes of FLII12Pglu700μ-δ6. […] Light gray shaded area indicates 10-90% confidence range of FLII12Pglu700μ-δ6 detection range, the dark gray shaded area indicates 20-80% confidence range. (B) Effect of the variation in ratio data (SD) on the determination of glucose concentrations. […] The calculated glucose concentration from the average of ratio data was set as 100%. In vivo glucose concentration was calculated from the equation: [gluc]vivo=Kd×(Δr−1)/(ΔRmax−Δr) with [G], glucose concentration; Kd, affinity constant of nanosenor; Δr, partial ratio change; ΔRmax, maximum ratio change. (C) Examples of in vivo glucose concentration dynamics upon cell perfusion and nanosenor range of FLII12Pglu700μ-δ6. The glucose concentration dynamics within the nanosenor range report differences in 1) accumulation rate, 2) elimination rate, 3) steady-state level, and 4) delay in nanosenor response. Gray lines indicate real in vivo glucose concentration dynamics and black lines indicate the nanosenor saturation of FLII12Pglu700μ-δ6. (D) In vivo glucose concentration-time plot (black line) with ratio ±SD and confidence range (grey lines) of FLII12Pglu700μ-δ6.
The target of experiment [2] is glucose nanosensor (not named in Example 9). The conditions noted are these: read-out: affinity constant for glucose.
Description: The confidence range for calculation of intracellular glucose concentrations is determined by the quality of the recorded sensor response data. As a rule of thumb, data with standard deviations off ±2.5% and ±5% can be interpreted between 10% and 90% and between 20% and 80% saturation, respectively. Monitoring the sensor response in presence of alternating analyte concentrations yields information about transport and metabolism in the targeted subcellular compartment from (1) the intracellular accumulation rate upon addition of the analyte, which is composed of influx rate minus metabolism and export rates, (2) the elimination rate when the analyte is removed, which is composed of export plus metabolism minus influx, (3) the steady state level of the sensor response, in which influx equals metabolism and efflux, and (4) the time delay before a sensor response can be recorded, which represents differences in influx rates or metabolism.
Experiment [3] has as its target FLIParaF.Ec-200n, FRET nanosensor: E. coli K12 AraF (L-arabinose binding protein) fused between eCFP and Venus (Escherichia coli, UniProt P02924). The experiment in a line: In vitro FRET titration of purified arabinose nanosensor. The conditions noted are these: D/L-arabinose; apparent; purified sensor, 20 mM MOPS pH 7.0, Venus/eCFP emission ratio 528/485 nm, single-site isotherm. The source says: The araF gene (EMBL: K00420) was amplified from Escherichia coli K12 genomic DNA using homologous primers, resulting in a PCR product that consisted of araF without stopcodon flanked by phage lambda attB recombination sites. The araF gene was fused between eCFP and Venus coding sequences of pGW1 through pDONR (Invitrogen) using […] (Invitrogen), respectively. The final construct was denoted pGW1araF.Ec and the correct sequence of the araF gene was verified by DNA sequencing (Sequetech). The gene product encoded on pGW1araF.Ec was denoted FLIParaF.Ec-200n.
The eCFP emission used for the ratio calculation was determined at 485 nm. Protein was diluted to give Venus/eYFP readouts of 20,000 to 30,000 at a manual gain between 70-75. By using the change in FRET ratio upon binding of ligand, affinity constants (Kd) were determined by fitting the titration curves to a single-site-binding isotherm:
R=Rapo+(Rsat−Rapo)·(n·[L])/(Kd+[L])
with [L], ligand concentration; n, number of equal binding sites; R, ratio; Rapo, ratio in the absence of ligand; and Rsat, ratio at saturation with ligand. Three independent protein preparations were analyzed and each protein preparation was analyzed in triplicate.

In experiment [4] the test system is E. coli L-arabinose binding protein AraF, unmodified. The conditions noted are these: tryptophan fluorescence spectroscopy, read-out: affinity (Kd); cited from earlier work.

Chain of FLII12Pglu700μ-δ6 glucose nanosensor (P0AEE5 24-332 limits assumed): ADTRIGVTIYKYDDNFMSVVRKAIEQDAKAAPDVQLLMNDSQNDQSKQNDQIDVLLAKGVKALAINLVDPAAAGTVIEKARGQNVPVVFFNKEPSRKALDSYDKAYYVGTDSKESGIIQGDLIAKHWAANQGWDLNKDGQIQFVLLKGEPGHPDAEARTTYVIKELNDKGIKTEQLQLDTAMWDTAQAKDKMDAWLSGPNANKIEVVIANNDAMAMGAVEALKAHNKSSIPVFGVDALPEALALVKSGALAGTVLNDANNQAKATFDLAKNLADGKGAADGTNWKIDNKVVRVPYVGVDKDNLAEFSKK
Chain of FLIParaF.Ec-200n, FRET nanosensor: E. coli K12 AraF (L-arabinose binding protein) fused between eCFP and Venus (P02924 24-329): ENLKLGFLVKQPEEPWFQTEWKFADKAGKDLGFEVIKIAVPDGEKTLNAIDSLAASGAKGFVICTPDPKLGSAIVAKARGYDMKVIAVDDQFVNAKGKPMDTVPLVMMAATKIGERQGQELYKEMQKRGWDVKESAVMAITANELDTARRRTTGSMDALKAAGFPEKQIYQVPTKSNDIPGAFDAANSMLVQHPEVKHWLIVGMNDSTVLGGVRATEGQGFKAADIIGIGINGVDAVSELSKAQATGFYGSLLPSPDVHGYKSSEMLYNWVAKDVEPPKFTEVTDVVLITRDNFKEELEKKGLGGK

In the case of `OC[C@H]1OC(O)[C@H](O)[C@@H](O)[C@@H]1O` (stereo partly shown) [glucose], the Kd in experiment [1] was 660 µM; in experiment [2], 600 µM.
On to `OC1COC(O)C(O)C1O` (racemic) [D/L-arabinose], for which, in experiment [3], the Kd was determined as 230 ± 18 nM.
`OC1OC[C@H](O)[C@H](O)[C@H]1O` (stereo partly drawn) [L-arabinose]: the Kd in experiment [4] was 98 ± 33 nM.
